This is an account of results in publication PMC11206525, “Structural Design, Anticancer Evaluation, and Molecular Docking of Newly Synthesized Ni(II) Complexes with ONS-Donor Dithiocarbazate Ligands” (Molecules, 2024).

The subject of series [1] is non-malignant breast epithelial cell line MCF-10A. Kind of series: MTT cytotoxicity assay, non-malignant MCF-10A cells. Format: cell-based, human. On the procedure:
(§1) The measurement was performed using the MTT assay in cultures treated with increasing concentrations.
(§2) The effect of the compounds applied to breast cancer MCF-7 cells and breast epithelial MCF-10A cells was evaluated by measuring 3-(4,5-dimethylthiazol-2-yl)-2,5-diphenyl tetrazolium bromide (MTT) (Invitrogen, Waltham, MA, USA). All compounds were diluted in dimethylsulfoxide (DMSO) with a final DMSO concentration of 0.01% (0.01 mL/100 mL × 100 = 0.01% means 0.01 mL of DMSO to 99.99 mL of water) in all groups and untreated controls. Cells were seeded in 96-well plates at a density of 5 × 10^3 cells per well and incubated with compounds diluted in serial concentrations ranging from 0.29 µM to 150 µM. After 24, 48, and 72 h at 37 °C and 5% CO2, 10 µL of MTT (5 mg/mL) was added to each well and incubated for 4 h at 37 °C. The supernatant was then removed, and 100 µL/well of DMSO was added to dissolve any deposited formazan. The optical density was measured at 570 nm using a microplate reader (DR-200B-NM_Kasuaki, Tokyo, Japan).
On the technique in general: Formazan colour is commonly taken as a measure of viable cells.

Series [2] deals with human breast cancer cell line MCF-7. The experiment in a line: MTT cytotoxicity assay, breast cancer MCF-7 cells. The format is cell-based. Conditions: MCF-7, MTT. On the procedure: as §1, §2
A further series deals with the cells tested. Further details: method as in doi:10.1016/j.ica.2017.03.027. Conditions: related work; cited from earlier work.
[3] abbreviates: read-out: IC50 (Inhibitory Concentration 50%) ± SD at 24 h, 24 h.
Setting [4] is: read-out: IC50 (Inhibitory Concentration 50%) ± SD at 48 h, 48 h.

The structures appear in SMILES notation. Read-outs that look alike come from different tables or passages of the source.

Consider `C=CCSC1=NN=C(C)c2ccccc2[O][Ni]([P](c2ccccc2)(c2ccccc2)c2ccccc2)[S]1` [(1), [Ni(L^1)PPh3]], for which the IC50 in series [1] (setting [3]) is 25.47 ± 0.031 µM; in series [1] (setting [4]), 28.43 ± 0.021 µM; in series [2] (setting [3]), 12.82 ± 0.029 µM; in series [2] (setting [4]), 22.71 ± 0.016 µM; in series [2] (read-out: IC50 (Inhibitory Concentration 50%) ± SD at 72 h, 72 h), 18.07 ± 0.017 µM.

`C=CCSC(=S)N/N=C(\C)c1ccccc1O` [H2L^1, S-Allyl-2-(2-hydroxyphenyl-ethylidene)dithiocarbazato]: the melting point worked out at 116 °C. Moreover, in series [1] (Homo sapiens, read-out: IC50 (Inhibitory Concentration 50%) ± SD at 24 h, 24 h), the IC50 came out at 65.44 ± 0.034 µM. Further, the IC50 in series [1] (Homo sapiens, read-out: IC50 (Inhibitory Concentration 50%) ± SD at 48 h, 48 h) came out at 62.86 ± 0.013 µM. In addition, the IC50 in series [1] (Homo sapiens, read-out: IC50 (Inhibitory Concentration 50%) ± SD at 72 h, 72 h) amounted to 62.86 ± 0.025 µM. Further, the IC50 in series [2] (Homo sapiens, MCF7, read-out: IC50 (Inhibitory Concentration 50%) ± SD at 24 h, 24 h) amounted to 88.85 ± 0.097 µM. In addition, the IC50 in series [2] (Homo sapiens, MCF7, read-out: IC50 (Inhibitory Concentration 50%) ± SD at 48 h, 48 h) was 87.73 ± 0.042 µM. Moreover, the IC50 in series [2] (Homo sapiens, MCF7, read-out: IC50 (Inhibitory Concentration 50%) ± SD at 72 h, 72 h) came to 28.49 ± 0.023 µM.

In the case of `C/C(=N\NC(=S)SCc1ccccc1)c1ccccc1O` [H2L^2, S-Benzyl-2-(2-hydroxyphenyl-ethylidene)dithiocarbazato], the melting point was determined as 145 °C.

With `O.O.O.O.O.O.[Cl][Ni][Cl]` [NiCl2⋅6H2O], the “effect on cell proliferation or cell viability” value with the cells tested is given as “no substantial effect”.

A word on the melting point: it is the temperature, or range, at which the solid turns liquid.
